This note sets out measurements from patent EP3587416A1, “2-OXOPIPERIDIN-3-YL DERIVATIVES AND USE THEREOF” (Institut Univ. de Ciència i Tecnologia, S.A., priority 2018, dated 2020).

Values joined by “and” are separate entries in the source; they are usually repeats but may differ in a detail not shown here. Equal values may be shown once.

Test [1] concerns the target T1, CNA-CF-PRIEIT interaction (Homo sapiens, UniProt Q08209).
T1 construct: human CNAα (amino acids 2-347)
Nature of the test: Fluorescence polarization assay, disruption of the CNA-CF-PRIEIT interaction (Example 20). The format is binding. To be noted: 50 µM compound, 5 µM human CNAα, 30 nM CF-PRIEIT; mean of triplicates. The protocol: Compounds were analyzed for their potential to disrupt the interaction between the human catalytic domain of the calcineurin Aα subunit (CNAα) and the NFATc2-derived PRIEIT peptide. For this purpose we used Flourescence Polarization (FP) technique described in Mulero et al, 2009 (J. Biol. Chem.284:9394-9401). Briefly, to identify disruptors of the CNA-PRIEIT interaction, 5 µM of human CNAα (amino acids 2-347) is preincubated with 50 µM of each hit compound in OptiPlate black 384-well flat-bottom plates (PerkinElmer Life Sciences) for 15 min at room temperature. Then, carboxyfluorescein (CF)-tagged NFATc2-derived PRIEIT peptide (CF-PRIEIT, 30 nM) is added to each well and incubated for 15 more min at room temperature. Each compound has been analyzed once with triplicates. FP measurements were performed using a Victor™ X5 2030 Multilabel Reader (PerkinElmer Life Sciences) with excitation and emission wavelengths of 485 nm and 535 nm, respectively. The fluorescent polarization of the free CF-peptide was considered 0% binding and the binding of CNA to the CF-PRIEIT peptide as 100% binding. Accordingly, the capacity of the compound to disrupt CNA-CF-PRIEIT interaction was measured. None of them displace the CF-PRIEIT peptide from the CNA-PRIEIT interaction (Table 3). Interaction disruption values are less than 30%. […] Data is given as mean ± standard deviation (SD).

A further test addresses T2, CN-PRIEIT interaction (Homo sapiens, UniProt Q08209).
T2 construct: recombinant human CNAD (amino acids 2-347) fused to glutathione S-transferase; GST (glutathione S-transferase); made in house; host or cells: bacteria
Description: Fluorescence polarization competition binding assay, CF-SPRIEIT bound to CNA (Example 21). To be noted: 6 µM CNA, 30 nM CF-SPRIEIT, no competitor = 100%. The procedure:
INK compounds were analyzed for their ability to disrupt CN-PRIEIT interaction using a fluorescence polarization assay. This biochemical assay requires recombinant human CNAD (amino acids 2-347) fused to glutathione S-transferase (GST-CN), which was expressed and purified from bacteria, and a NFATc2-derived PRIEIT peptide labeled with carboxyfluorescein (CF), CF-PRIEIT. Competition binding assays of INK compounds on the interaction of CN with the CF-NFATc2-derived PRIEIT peptide were performed by fluorescence polarization. Briefly, 6 µM of CNA was incubated in the absence (positive control of interaction) or in the presence of 50 µM or 10 µM of competitor compound prior to addition of 30 nM of CF-SPRIEIT peptide. VIVIT peptide was included as positive control of interaction disruption ability. Data is represented as mean percentage of CF-SPRIEIT bound to CNA (± SEM) of 2 experiments performed in triplicates. Signal in the absence of competing peptide was considered as 100% of CF-SPRIEIT bound to CNA. Table 4: Functional effect of pair related structure compounds on NFATc activation

The test system of test [2] is NFATc activation in HEK 293T cells. Nature of the test: 3xNFAT-luc dual-luciferase reporter assay of NFATc activation. In kind it is cell-based, human. To be noted: Io/PMA/CaCl2 stimulation, inhibition at least at 100, 50 and 20 µM (Figure 1). The procedure:
• Figure 1. Effect of INK compounds on NFATc activation in HEK 293T cells. Cells were transfected with 3xNFAT-luc reporter gene, treated with each compound at 0 µM / 0.02 µM / 0.2 µM / 1 µM / 5 µM/ 20 µM / 50 µM /100 µM (increasing concentrations of the compounds are represented in the graph from left to right) for 2 hours. Then, cells were calcium stimulated with ionomycin (1 µM), PMA (20 nM) and CaCl2 (10 mM) for 4 hours and luciferase activity was analyzed following the dual luciferase reporter assay manufacters' indications and a luminometer (Victor X5 plate reader form Perin-Elmer). […] CN activity towards the RII peptide was analyzed in the absence (positive control of CN activity) or in the presence of each compound at 50 µM, or of 50 µM of LxVP peptide (positive control of CN activity inhibition). […]
To determine the ffect of INK compounds on NFATc activation, HEK 293T cells were transfected with 3xNFAT-luc reporter gene and Renilla-luc plasmid as control of gene transfection. […] Then, cells were treated with compounds of formula (I) at several concentrations for 2 hours and light units analyzed following manufacture's protocol of the dual-luciferase reporter assay system (Figure 1, Functional effect of pair related structure compounds on NFATc activation).

T2 sequence (Q08209 2-347): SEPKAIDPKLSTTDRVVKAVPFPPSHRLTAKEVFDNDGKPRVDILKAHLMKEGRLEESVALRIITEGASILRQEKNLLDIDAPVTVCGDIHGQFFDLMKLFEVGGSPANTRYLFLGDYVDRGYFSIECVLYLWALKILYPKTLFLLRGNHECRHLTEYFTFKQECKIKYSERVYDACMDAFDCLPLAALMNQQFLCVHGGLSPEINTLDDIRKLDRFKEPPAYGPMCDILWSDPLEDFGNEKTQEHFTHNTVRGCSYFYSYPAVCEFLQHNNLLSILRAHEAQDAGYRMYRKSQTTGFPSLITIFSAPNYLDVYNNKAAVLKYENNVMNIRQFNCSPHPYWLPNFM
T1 sequence (Q08209 2-347): as above

In turn, `COc1ccccc1-c1ccc(N2CCCC(NS(=O)(=O)c3cc(Cl)c(Cl)s3)C2=O)c(F)c1` (stereo not shown) [IUCT-0460, 4,5-Dichloro-N-(1-(3-fluoro-2'-methoxy-[1,1'-biphenyl]-4-yl)-2-oxopiperidin-3-yl)thiophene-2-sulfonamide] registered an inhibition at 50 µM in test [1] of 6.53%.
Same read-out and setting: next, `COc1ccccc1-c1ccc(N2CCCC(NS(=O)(=O)c3c(C)noc3C)C2=O)c(F)c1` (stereo not shown) [IUCT-0461, N-(1-(3-fluoro-2'-methoxy-[1,1'-biphenyl]-4-yl)-2-oxopiperidin-3-yl)-3,5-dimethylisoxazole-4-sulfonamide]: 11.1%; `COc1ccccc1-c1ccc(N2CCCC(NS(=O)(=O)c3ccc4c(c3)OCO4)C2=O)c(F)c1` (stereo not shown) [IUCT-0462, N-(1-(3-fluoro-2'-methoxy-[1,1'-biphenyl]-4-yl)-2-oxopiperidin-3-yl)benzo[d][1,3]dioxole-5-sulfonamide]: 25.7%; `COc1ccccc1-c1ccc(N2CCCC(NS(=O)(=O)c3ccc(-c4ccccn4)s3)C2=O)c(F)c1` (stereo not shown) [IUCT-0463, N-(1-(3-fluoro-2'-methoxy-[1,1'-biphenyl]-4-yl)-2-oxopiperidin-3-yl)-5-(pyridin-2-yl)thiophene-2-sulfonamide]: 15.8%.
In test [1], `COc1ccccc1-c1ccc(N2CCCC(NS(=O)(=O)c3cc4ccccc4o3)C2=O)c(F)c1` (stereo not shown) [IUCT-0464, N-(1-(3-fluoro-2'-methoxy-[1,1'-biphenyl]-4-yl)-2-oxopiperidin-3-yl)benzofuran-2-sulfonamide] showed an inhibition at 50 µM of 25.8%. For the same compound, the “Relative interaction (%) Mean” value was 93,8% on CN-PRIEIT interaction (10 µM competitor) and 83,2% on CN-PRIEIT interaction (50 µM competitor). At CN-PRIEIT interaction (10 µM competitor, single replicate), the “Relative interaction (%) Sample at 10 µM” value is 96,8% and 92,3% and 92,4%. Moreover, the “Relative interaction (%) Sample at 50 µM” value at CN-PRIEIT interaction (50 µM competitor, single replicate) was 79,0% and 87,7% and 82,9%. Moreover, the NFATc activation entry in test [2] was “strongly inhibits”.
Take `COc1ccccc1-c1ccc(N2CCCC(N(CC#N)S(=O)(=O)c3cc(Cl)c(Cl)s3)C2=O)c(F)c1` (stereo not shown) [IUCT-0465, 4,5-Dichloro-N-(cyanomethyl)-N-(1-(3-fluoro-2'-methoxy-[1,1'-biphenyl]-4-yl)-2-oxopiperidin-3-yl)thiophene-2-sulfonamide]: the inhibition at 50 µM in test [1] was 13.8%.
In test [1], `CCOC(=O)CN(C1CCCN(c2ccc(-c3ccccc3OC)cc2F)C1=O)S(=O)(=O)c1ccc2c(c1)OCO2` (stereo not shown) [IUCT-0466, Ethyl N-(benzo[d][1,3]dioxol-5-ylsulfonyl)-N-(1-(3-fluoro-2'-methoxy-[1,1'-biphenyl]-4-yl)-2-oxopiperidin-3-yl)glycinate] returned an inhibition at 50 µM of 16.7%.
The same measure, in the same setting: under `CCOC(=O)CN(C1CCCN(c2ccc(-c3ccccc3OC)cc2F)C1=O)S(=O)(=O)c1ccc(-c2ccccn2)s1` (stereo not shown) [IUCT-0469, Ethyl N-(1-(3-fluoro-2'-methoxy-[1,1'-biphenyl]-4-yl)-2-oxopiperidin-3-yl)-N-((5-(pyridin-2-yl)thiophen-2-yl)sulfonyl)glycinate] stands 29.3%.
